Experimental data from patent US20110160279A1, “METHODS FOR TREATMENT AND PREVENTION OF OTOTOXICITY BY siRNA” (BOARD OF TRUSTEES OF SOUTHERN ILLINOIS UNIVERSITY, priority 2007, published 2011).
“Also recorded” adds a separate entry of the source.

Experiments:
p53 = p53 protein expression in UB/OC-1 cells; format: cell-based, mouse
Protocol: (§1) The increases in these proteins were attenuated by capsazepine (10 μM), implicating TRPV1 in this process.

Bax = Bax protein expression in UB/OC-1 cells; format: cell-based, mouse
Protocol: as §1

outer hair cells = test: Outer hair cell loss by scanning electron microscopy; format: in vivo, rat; settings: cisplatin 16 mg/kg i.p., vehicle-pretreated cochlea, 3 days, N=3
Protocol: Immediately after completion of follow-up ABRs, deeply sedated rats were euthanized, their cochleae harvested and processed as described in (Kamimura et al, 1999). Sputter coated cochleae were then viewed and photographed with a Hitachi S-500 scanning electron microscope (Hitachi Ltd., Tokyo, Japan).
Hair cell counts were performed using a modified version of the method used by (Korver et al. 2002). Two representative areas of the basal turn and hook portion were photographed. In each area, inner or outer hair cells were counted in an area that was 10 pillar cell heads in length.
The results were shown, as the average survival percentage rates compared to the control group. Statistical analysis was performed using Student's t-test.
Five rats were administered either vehicle or TRPV1 siRNA (3 μl) by round window application. The rats served as their own controls since one cochlea was treated with vehicle and the other with siRNA.

Rac1 [1] = test: Real time RT-PCR of Rac1 mRNA in UB/OC-1 cells; format: cell-based, mouse; settings: cisplatin 2.5 μM
Protocol: (§2) Immortalized organ of Corti cells derived from the mouse, UB/OC-1 cells, were obtained from Dr. Matthew Holley (Institute of Molecular Physiology, Addison Building, Western Bank, Sheffield, UK) and cultured in RPMI 1640 supplemented with 10% Fetalclone II (Hyclone, Logan, Utah) serum and penicillin-streptomycin. Cultures were grown in a 33° C. incubator in 10% CO2.
(§3) RNA was isolated by adding 1 ml TR1 reagent to 100 mg of cochlear or cortical tissue or 0.5 ml TR1 reagent (Sigma, St. Louis, Mo.) per well of each six well plate, according to the manufacturer's instructions.
(§4) Real time reverse transcriptase polymerase chain reaction (RT-PCR): One microgram of total RNA was converted to cDNA using iScript cDNA Synthesis Kit (Bio-Rad, Hercules, Calif.), and qRTPCR was performed as described by (Mukherjea et al, 2006). Gene specific primer pairs were used for the various reactions and mRNA expression levels were normalized to the levels of GAPDH house keeping gene.
(§5) The rodent set of primers and siRNA were based on the homologous sequences in the rat and mouse cDNA sequences. The primers were purchased from Sigma Genosys (St. Louis, Mo.). Purified siRNA duplexes were purchased from Qiagen (Valencia, Calif.).

TRPV1 [2] = format: cell-based, mouse
Protocol: as §2
To further study the role of ROS generated via cochlear NADPH oxidases in the induction of TRPV1 in the cochlea, in vitro experiments were performed using the organ of Corti transformed hair cell line, UB/OC1 (Rivolta et al., Proc. R. Sco. Lond., 265, 1595-1603, 1998). […] Immunolabeling was quantitated by fluorescence imaging using a confocal microscope. […] The immunofluorescence in these groups was reduced by 60 and 70%, respectively (FIG. 2B). […] The increases in expression of these genes were inhibited by DPI (10 μM), indicative of a role or NADPH oxidase activity in the induction of these subunits (FIG. 2G).

TRPV1 mRNA [3] = test: Real time RT-PCR of TRPV1 mRNA in UB/OC-1 cells; format: cell-based, mouse; settings: cisplatin 2.5 μM, 24 h
Protocol: as §2, §3, §4, §5

p22 = test: Real time RT-PCR of p22 transcript in rat cochlea; format: in vivo; settings: cisplatin (data not shown)
Protocol: as §3, §4
(§6) The rodent set of primers and siRNA were based on the homologous sequences in the rat and mouse cDNA sequences. The primers were purchased from Sigma Genosys (St. Louis, Mo.). Purified siRNA duplexes were purchased from Qiagen (Valencia, Calif.). Primers were as follows: Rodent NOX3 (sense): 5′-[…]-3′ (SEQ ID NO: 9) (antisense): 5′-[…]-3′ (SEQ ID NO: 10), Rodent-GAPDH (sense): 5′-[…]-3′ (SEQ ID NO: 11) (antisense): 5′-[…]-3′ (SEQ ID NO: 12), Rodent TRPV1 (sense): 5′-[…]-3′ (SEQ ID NO: 13), (antisense): 5-[…]-3′ (SEQ ID NO: 14), Rodent Rac-1 (sense): 5′-[…]-3′ (SEQ ID NO: 15), (antisense): 5′-[…]-3′ (SEQ ID NO: 16), Rodent gp-91 (sense) 5′-[…]-3′ (SEQ ID NO: 17), (antisense): 5′-[…]-3′ (SEQ ID NO: 18), and Rat p22 (sense): 5′-[…]-3′ (SEQ ID NO: 19), (antisense) 5′-[…]-3′ (SEQ ID NO: 20) […]

UB-OC1 cells [4] = test: Cisplatin-induced ROS generation by DCF2DA fluorescence in UB-OC1 cells; format: cell-based, mouse
TRPV1 protein [5] = test: Western blot of TRPV1 protein in whole cochlear lysates; format: in vivo, rat; settings: 72 h following cisplatin
Text: Cochleae were homogenized in ice-cold TRIS 50:10:100. The whole tissue lysate was then used for Western blotting. After transfer to nitrocellulose membrane TRPV1 protein was visualized by chemiluminesence detection (ECL, Amersham, Piscataway, N.J.).

TRPV1 [6] = test: TRPV1 immunoreactivity in rat cochlea sections; format: in vivo; settings: 72 h following cisplatin 13 mg/kg i.p.; confocal microscopy
Protocol: Cochleae perfused with 4% paraformaldehyde were processed for decalcification and sectioning as described in (Dunaway et al., 2003). TRPV1-1 antibody was diluted 1:100 and samples were incubated for 1 h at 37° C. incubator. Secondary antibody used was goat anti-rabbit IgG conjugated to horse radish peroxidase (Santa Cruz Biotechnology, Inc, Santa Cruz, Calif.) which was diluted 1:200. ABC staining system (Santa Cruz Biotechnology), which included a diaminobenzadine as a peroxidase substrate, was used for visualization of protein expression. Slides were imaged using Scion Imaging system (Frederick, Md.).
Rats were tested for hearing loss 72 h later using auditory brainstem evoked responses (ABRs). […] Cochleas obtained from these animals were decalcified, sectioned and processed for TRPV1 immunoreactivity using a polyclonal antibody (as described in Puntambekar et al., 2005). Visualization by confocal microscopy indicated TRPV1 immunoreactivity in the organ of Corti, supporting cells and spiral ganglion cells. […] The increases were 18±1 and 15±3 at 48 h and 72 h, respectively (FIG. 1C).

NOX3 mRNA [7] = test: Real time RT-PCR of NOX3 mRNA in rat cochlea; format: in vivo; settings: cisplatin, 72 hrs
Protocol: (§7) Animal procedures and sample collection: Male Wistar rats were used for this study. Pre-ABR's were performed 2-3 days before round window application of siTRPV1 or PBS. […] The cochleas were dissected and used for the preparation of total RNA or total protein extracts, or perfused with 2.5% glutaraldehyde for morphological studies by Scanning Electron Microscopy (SEM's) or 4% paraformaldehyde for immunocytochemistry.
as §3, §4, §5

NOX3 mRNA [8] = test: Real time RT-PCR of NOX3 mRNA in UB/OC-1 cells; format: cell-based, mouse; settings: cisplatin 2.5 μM
Protocol: as §2, §3, §4, §5

Rac1 [9] = test: Real time RT-PCR of Rac1 transcript in rat cochlea; format: in vivo; settings: cisplatin (data not shown)
Protocol: as §3, §4, §6

TRPV1 mRNA [10] = test: Real time RT-PCR of TRPV1 mRNA in rat cochlea; format: in vivo; settings: rat cochlea
Protocol: as §7, §3, §4, §5

TRPV1 protein [11] = test: Western blot of TRPV1 protein in UB-OC1 cells; format: cell-based, mouse; settings: cisplatin 2.5 μM
gp91 [12] = test: Real time RT-PCR of gp91 mRNA in UB/OC-1 cells; format: cell-based, mouse; settings: cisplatin 2.5 μM
Protocol: as §2, §3, §4, §5

UB/OC-1 cells = test: Intracellular Ca2+ with Fura4-AM in UB/OC-1 cells; format: cell-based, mouse; settings: cisplatin
Protocol: as §1

UB-OC1 cells [13] = test: Apoptosis by TUNEL staining in UB-OC1 cells; format: cell-based, mouse; settings: cisplatin 20 μM, 24 h
Protocol: as §2
Frag-EL DNA fragmentation kit and H2DCFDA dye was purchased from (Calbiochem, San Diego, Calif.). TRPV1 antibody (Neuromics, Edina, Minn.) and secondary goat anti rabbit antibody was purchased from Santa Cruz Biotechnology (Santa Cruz, Calif.).
as §1

gp91 [14] = test: Real time RT-PCR of gp91 transcript in rat cochlea; format: in vivo; settings: cisplatin (data not shown)
Protocol: as §3, §4, §6

UB-OC1 cells [15] = test: Cell viability and morphology of UB-OC1 cultures; format: cell-based, mouse; settings: 100 μM AEBSF or 10 μM DPI
[16] = pretreatment (capsazepine 10 μM; BAPTA-AM 30 min) before cisplatin

With `CC(=O)OCOC(=O)CN(CC(=O)OCOC(C)=O)c1ccccc1OCCOc1ccccc1N(CC(=O)OCOC(C)=O)CC(=O)OCOC(C)=O` [BAPTA-AM] the “effect on cisplatin-induced increase in p53” value (p53; [16]) was “down-regulated the expression of these pro-apoptotic genes to control levels” and the “effect on cisplatin-induced increase in Bax” value (Bax; [16]) was “substantial reduction”.

For `N.N.[Cl][Pt][Cl]` [cisplatin], the “percentage of outer hair cell loss, base” value (outer hair cells) was 42±9 percentage, the “percentage of outer hair cell loss, hook” value (outer hair cells) was 72±14 percentage and the “percentage of outer hair cell loss, middle turn” value (outer hair cells) was 22±2.7 percentage. The “increase in Rac1 mRNA” value (Rac1 [1]) was 2.1 fold, the “induction in TRPV1 immunoreactivity over control vehicle treated cells” value (TRPV1 [2]; cisplatin 2.5 μM, 24 h) was 71±29% and the “change in TRPV1 mRNA” value (TRPV1 mRNA [3]) was “significant increase; also recorded: Three fold increase”. For the same compound, the “increase in p22 expression” value (p22) was 8±1 fold, the “ROS generation by DCF2DA fluorescence” value (UB-OC1 cells [4]; cisplatin 2.5 μM, 30 minute) was “robust increase” and the “TRPV1 protein (~95 kDa band) in whole cochlear lysates” value (TRPV1 protein [5]) was “increased TRPV1 protein”. The “elevation of TRPV1 immunoreactivity in hair cells and spiral ganglion cells” value (TRPV1 [6]) was 2-3 fold, the “change in NOX3 transcript in the cochlea” value (NOX3 mRNA [7]) was “small but statistically significant increase” and the “increase in NOX3 mRNA” value (NOX3 mRNA [8]) was 2.7 fold. The p53 protein (p53; cisplatin, 24 hr) was “increases”, the Bax protein (Bax; cisplatin, 24 hr) was “increases” and the “increase in Rac1 expression” value (Rac1 [9]) was 478±85 fold. The “increase in TRPV1 transcripts” value (TRPV1 mRNA [10]; 24 h following cisplatin) was 15±1 fold, the “increase in TRPV1 transcripts” value (TRPV1 mRNA [10]; 48 h following cisplatin) was 18±1 and the “increase in TRPV1 transcripts” value (TRPV1 mRNA [10]; 72 h following cisplatin) was 15±3. The “level of induction of TRPV1 by cisplatin” value (TRPV1 mRNA [10]; lipoic acid experiment (FIG. 1D), 72 hrs) was 5.5±1.5 fold, the “increase in TRPV1 protein by Western blotting” value (TRPV1 protein [11]) was 90%±10% and the “increase in gp91 mRNA” value (gp91 [12]) was 2.8 fold. The “intracellular Ca2+” value (UB/OC-1 cells) was “increased intracellular Ca2+”, the “apoptotic cells (TUNEL)” value (UB-OC1 cells [13]) was roughly 80% and the “increase in gp91 expression” value (gp91 [14]) was 1000±102 fold.

With `NCCc1ccc(S(=O)(=O)F)cc1` [AEBSF] the “reduction of TRPV1 immunofluorescence” value (TRPV1 [2]; pretreatment with 100 μM AEBSF or 10 μM DPI before cisplatin 2.5 μM) was 60%, the “effect on cisplatin-induced increase in ROS generation” value (UB-OC1 cells [4]; pretreated with AEBSF 100 μM) was “abolished” and the “effect on cell viability over a 24 h period” value (UB-OC1 cells [15]) was “did not significantly affect cell viability”.
